Data reported in ChEMBL document CHEMBL5113537, “Discovery of β-Arrestin-Biased 25CN-NBOH-Derived 5-HT2A Receptor Agonists” (J Med Chem, 2022).
The source made the active and inactive calls. The rule behind the calls is not given here.

How the values were obtained:
[1] = species on record: Homo sapiens; experiment: (§1) Selectivity ratio of EC50 for agonist activity at human 5HT2A S159A mutant transfected in HEK293T cells assessed as beta arrestin-2 recruitment measured for 2 hrs by luminescent assay to EC50 for agonist activity at human wild type 5HT2A receptor transfected in HEK293T cells assessed as beta arrestin-2 recruitment measured for 2 hrs by luminescent assay; assay type: cell-based
[2] = species on record: Homo sapiens; experiment: as §1, with “mini Galphaq” for “beta arrestin-2”, “5HT2A” for “5HT2A receptor”; assay type: cell-based
[3] = target: 5-hydroxytryptamine receptor 2A (Homo sapiens) (UniProt P28223); experiment: Agonist activity at wild type human 5HT2A transfected in HEK293T cells assessed as beta arrestin-2 recruitment measured for 2 hrs by luminescent assay; assay type: functional, cell-based; conditions: filed as agonist
Sequence of 5-hydroxytryptamine receptor 2A (Homo sapiens) (P28223 whole entry): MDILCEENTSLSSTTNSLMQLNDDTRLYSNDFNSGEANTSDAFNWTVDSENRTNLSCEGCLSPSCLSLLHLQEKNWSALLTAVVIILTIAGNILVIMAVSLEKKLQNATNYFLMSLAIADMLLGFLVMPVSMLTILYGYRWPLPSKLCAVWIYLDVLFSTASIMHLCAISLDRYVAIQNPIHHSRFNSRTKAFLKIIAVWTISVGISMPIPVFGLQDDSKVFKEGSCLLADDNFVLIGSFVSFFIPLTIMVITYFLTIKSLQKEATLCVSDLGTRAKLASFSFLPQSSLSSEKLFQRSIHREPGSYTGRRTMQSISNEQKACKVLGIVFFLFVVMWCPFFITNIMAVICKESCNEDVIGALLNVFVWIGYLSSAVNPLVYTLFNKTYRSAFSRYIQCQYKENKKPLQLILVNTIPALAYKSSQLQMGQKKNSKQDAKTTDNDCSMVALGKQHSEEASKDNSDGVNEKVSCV

COc1cc(CCNCc2cccc(O)c2)c(OC)cc1Br
Ratio EC50 [1]: 15 | Ratio EC50 [2]: 12

COc1cc(CCNCc2ccccc2F)c(OC)cc1C#N
Ratio EC50 [1]: 3

COc1cc(CCNC2COc3ccccc32)c(OC)cc1C#N (racemic)
Activity [3]: Active
